“Also recorded” adds a separate entry of the source.
Legend:
[1] = system: vector-only (V/O) CHO-K1 cells; assay: Confocal visualization on live vector-only cells with fluorescently labeled kinin peptide; format: binding; settings: 10 µM labeled peptide, 1 min, HBSS, confocal Leica SP8
Text: Three peptides were used in this study. These included: 1) the ligand for the endogenous tick kinin receptor from Rhipicephalus sanguineus, Rhisa-kinin 8 peptide of sequence GTGEDQAFSPWGamide (Rhisa-K-8; RK8; of identical sequence to Rhimi-K-8 in Rhipicephalus microplus)[48], 2) the same peptide but fluorescently labeled at the N-terminus with tetramethylrhodamine (TMR) a red fluorescent dye, designated TMR-Rhisa-K-8 (TMR-RK8), and 3) a labeled peptide synthesized with the scrambled sequence of the kinin ligand, designated TMR-Scrambled. The sequence of TMR-RK8 was TMR-C-GTGEDQAFSPWGamide). The TMR-Scrambled kinin (TMR-C-GTQWGPGFEADSamide) served as a negative control for tissue labeling. […]
The BMLK3 and V/O cells (5000–10,000 cells) were seeded separately in 200 µL selective media onto the two chambers of the cover glass (Lab-Tek Chambered Coverglass, 4.2 cm^2 area, #1.0 German borosilicate glass, sterile, Cat # 155,380, Thermo Fisher Scientific Inc., Walthams, MA) and grown in the incubator overnight at 37 °C and 5% CO2. The next day, cells would be ready for fluorescent labeling: the selective media was replaced with 200 µL HBSS to rinse the cells. […] Images were analyzed and computer-colored using Fiji/ImageJ (National Institutes of Health, Bethesda, MD). […]

[2] = system: tick kinin receptor in midgut muscles; assay: Fluorescent labeling of live midgut ex vivo, confocal microscopy; format: binding, Rhipicephalus sanguineus; settings: 10 µM labeled peptide, 1 min
Text: Three peptides were used in this study. These included: 1) the ligand for the endogenous tick kinin receptor from Rhipicephalus sanguineus, Rhisa-kinin 8 peptide of sequence GTGEDQAFSPWGamide (Rhisa-K-8; RK8; of identical sequence to Rhimi-K-8 in Rhipicephalus microplus)[48], 2) the same peptide but fluorescently labeled at the N-terminus with tetramethylrhodamine (TMR) a red fluorescent dye, designated TMR-Rhisa-K-8 (TMR-RK8), and 3) a labeled peptide synthesized with the scrambled sequence of the kinin ligand, designated TMR-Scrambled. The sequence of TMR-RK8 was TMR-C-GTGEDQAFSPWGamide). The TMR-Scrambled kinin (TMR-C-GTQWGPGFEADSamide) served as a negative control for tissue labeling. All peptides were custom-synthesized and purchased from GenScript (Piscataway, NJ, USA) with a purity of ≥ 95% and the cysteine in bold in both sequences was added to attach the label. Experiments were replicated with independently synthesized batches (4 mg each) of labeled and unlabeled peptides, for reproducibility. Unlabeled RK8 was used as a competitive ligand to verify target-specific binding of the labeled TMR-RK8 (see Ligand Competition Assay). For cell assays, the peptide stock solutions (100 µM) were made in 1% dimethyl sulfoxide (DMSO) in Hank’s balanced salt solution (HBSS, Thermo Fisher, Waltham, USA). For fluorescent cell labeling, peptide working solutions (10 µM) were prepared in HBSS from stock solutions. For assays on the midgut, peptides were solubilized and diluted in a tick physiological saline consisting of 140 mM NaCl, 5 mM KCl, 1 mM MgCl2, 5 mM CaCl2, 4 mM NaHCO3, and 5 mM HEPES, pH 7.2[49].
(§1) Individual female ticks were immobilized on a Petri dish filled with wax by submerging their legs in melted wax heated with a soldering pencil (Electronic Control Soldering Station EC 1000, Weller, Apex, North Carolina, USA). Females were dissected under physiological saline following the protocol described by Tidwell et al.[51]. The tick was cut along the edge of the scutum/alloscutum using a stainless steel #12 scalpel blade (Integra Miltex, York, PA, USA), after which the scutum was removed with a pair of fine forceps. To expose the midgut for removal, the tracheae, Malpighian tubules, ovaries, rectal sac, and synganglion were removed with fine forceps in that order. The midgut was then carefully removed and placed into 200 µL of fresh tick saline (See Reagents and Peptides) on a single gasketed incubation chamber (500 µL, Size 22 × 40 mm, Electron Microscopy Sciences, Hatfield, PA). The midguts were then rinsed three times with the physiological tick saline for subsequent fluorescent labeling or activity experiments.
To determine the location of the tick kinin receptor in the midgut of ticks, a commercially synthesized Rhisa-kinin peptide 8[52] conjugated with a stable, red fluorophore (TMR-RK8) or a similarly labeled peptide of scrambled sequence (TMR-Scrambled) were applied to freshly dissected midguts ex vivo. For this, midguts of unfed adult females were incubated in ice-cold saline for 10 min. The saline was removed before incubation in 200 µL of 4’,6-diamidino-2-phenylindole dihydrochloride (DAPI, Sigma, 1 µg/mL in saline) for 1 min and rinsed with saline (200 µL) once. After saline removal, the midgut was incubated for 1 min with 200 µL of 10 µM of either TMR-Scrambled kinin or TMR-RK8, then the labeled peptide solution was removed by pipette and the midgut was rinsed twice with 200 µL saline. […]

[3] = system: tick midgut; assay: Tick midgut contraction assay with EthoVision video analysis; design: species or system Rhipicephalus sanguineus
Text: as §1
Midguts were dissected from immobilized female ticks under tick saline, as described under the Midgut Dissection. Ten different midguts were used for each of the two treatments, and ticks were of the same age and batch and had been maintained under the same conditions. Dissected midguts were placed individually into 200 µL of tick saline for 10 min at 28 °C on a gasketed glass coverslip (500 µL, Size 22 × 40 mm) serving as incubation chamber. […] After the final wash and removal of saline, 200 µL of saline were added, and a microscopy coverslip (24 × 60 mm, VWR, Radnor, PA) was placed over the gasketed portion of the incubation chamber, which height (0.5 mm) fits to prevent the midgut from floating, but still allows midgut peristalsis. The midguts were observed and filmed under a dissecting microscope (Olympus SZ61, Japan) equipped with an Infinity 5 camera (Teledyne Lumenera, Ottawa, ON, Canada). All videos were recorded for 1 min with the INFINITY ANALYZE 7 software (Teledyne Lumenera) at 30 frames/second with a 2464 × 2056 resolution. The field of view in all videos recorded represents 4 × 3.5 mm to capture the entire tick midguts under saline. All video files in Windows Media Video (.wmv) format obtained from the Infinity Analyze 7 software were converted to the MP4 format using CloudConvert (cloudconvert.com, Lunaweb, Munich, Germany) for analyses with the EthoVision XT 17 software (Noldus Information Technology, Wageningen, The Netherlands).
We used the EthoVision 17 XT software to quantify the “activity” (pixel change) of the midguts from the videos recorded. This software defines activity as the percentage of pixels that have changed in the entire defined arena between the current image and previous image. The videos are recorded in 2464 × 2056 resolution and the arena is set to be the entire video screen. Video files were uploaded into the program and analyzed starting from time zero to the end of the 60 s video. Detection settings for activity included the activity threshold which was set to 5 to achieve zero detection when the midgut was immobile. Although the video captured 30 frames (images) per s, for the video analysis we chose a “sample rate” of 7 samples /s, with sample rate being the number of images from the video the EthoVision program analyzes per second. To calculate activity, each pixel of the video image was compared from one image to the next, and the proportion of pixel changes was calculated by dividing the number of pixels changed from one image to the next by the total number of pixels in the image. Care was given for the midgut to occupy most of the arena, as the activity analyses will reflect the midgut movement as a proportion of the total arena. Midgut activity is observed as pixel changes, which are represented by the red-colored pixels in the S4 video. The mean pixel change per midgut was then determined by averaging the pixel changes from all samples within the recording period. […]

Substance: TMR-C-GTQWGPGFEADSamide [TMR-Scrambled]
- labeling of vector-only cells (in words) [1]: not labeled by either peptide
- non-specific labeling below midgut surface (in words) ([2]; midguts ex vivo, Z-slices under the surface): non-specific aggregation in lipid vesicles beneath the midgut surface; also recorded: non-specific labeling observed in lipid vesicles inside the midgut
- labeling of midgut surface muscles (in words) ([2]; tick saline pH 7.2, midguts of unfed females ex vivo, DAPI and Alexa 488-phalloidin, confocal 20X/40X): did not significantly bind to the surface of the tick midgut; also recorded: did not show specific binding to the midgut of ticks; also recorded: specific muscle surface staining was not observed; also recorded: No signal; also recorded: grid-like fluorescent pattern was not observed
- midgut contractions, S5 Video (in words) ([3]; 1 µM TMR-Scrambled, after 10 min of exposure, 4X speed): did not induce contractions
- midgut peristalsis/contractions (in words) ([3]; 10 µM, 1 min, 28 °C, midguts of unfed females ex vivo, video recorded 1 min): did not elicit peristalsis; also recorded: low to imperceptible activity; also recorded: did not display significant activity
- mean activity (mean pixel change, percentage of pixels changed in arena) ([3]; 10 µM, 1 min, rinsed twice, 28 °C, tick saline, 60 s video, 7 samples/s, EthoVision XT 17, activity threshold 5, N = 10 midguts): less than 0.1%

From paper PMC11091117, “A fluorescently-tagged tick kinin neuropeptide triggers peristalsis and labels tick midgut muscles” (Scientific Reports, 2024)
